{"source": "paper PMC10726358", "about": "(Journal of Medicinal Chemistry, 2023)", "key": {"SMARCA4": {"target": "T1, SMARCA4 (Homo sapiens, UniProt P51532)", "T1 construct": "≥2000-fold selectivity over all 20 non-BET bromodomains tested; purchased DiscoverX", "T1 sequence (P51532 1453-1564 limits assumed)": "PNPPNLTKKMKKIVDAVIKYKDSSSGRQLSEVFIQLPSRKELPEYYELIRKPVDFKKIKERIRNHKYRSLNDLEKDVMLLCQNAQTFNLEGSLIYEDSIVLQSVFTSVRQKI", "assay": "BROMOscan SMARCA4", "assay_type": "binding", "experimental": "(§1) The BRD4 BD1/BD2 TR-FRET assay had been used routinely for this optimization work, and in order to better understand the BET BD1 domain selectivity profile, 31 was tested in TR-FRET BRD2, BRD3, and BRDT assays.\n(§2) [52] BROMOscan recombinant protein binding assays were carried out at DiscoverX. (accessed April 4, 2023)."}, "ATAD2B": {"target": "T2, ATAD2B (Homo sapiens, UniProt Q9ULI0)", "T2 construct": "≥2000-fold selectivity over all 20 non-BET bromodomains tested; purchased DiscoverX", "T2 sequence (Q9ULI0 951-1066 limits assumed)": "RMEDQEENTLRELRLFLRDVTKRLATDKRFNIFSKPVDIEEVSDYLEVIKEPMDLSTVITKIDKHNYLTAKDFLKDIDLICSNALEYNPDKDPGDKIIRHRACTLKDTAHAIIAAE", "assay": "BROMOscan ATAD2B", "assay_type": "binding", "experimental": "as §1, §2"}, "5-HT3 [1]": {"target": "T3, 5-HT3 (Homo sapiens, UniProt P46098)", "T3 construct": "purchased GSK enhanced cross-screening panel (in-house)", "T3 sequence (P46098 24-478)": "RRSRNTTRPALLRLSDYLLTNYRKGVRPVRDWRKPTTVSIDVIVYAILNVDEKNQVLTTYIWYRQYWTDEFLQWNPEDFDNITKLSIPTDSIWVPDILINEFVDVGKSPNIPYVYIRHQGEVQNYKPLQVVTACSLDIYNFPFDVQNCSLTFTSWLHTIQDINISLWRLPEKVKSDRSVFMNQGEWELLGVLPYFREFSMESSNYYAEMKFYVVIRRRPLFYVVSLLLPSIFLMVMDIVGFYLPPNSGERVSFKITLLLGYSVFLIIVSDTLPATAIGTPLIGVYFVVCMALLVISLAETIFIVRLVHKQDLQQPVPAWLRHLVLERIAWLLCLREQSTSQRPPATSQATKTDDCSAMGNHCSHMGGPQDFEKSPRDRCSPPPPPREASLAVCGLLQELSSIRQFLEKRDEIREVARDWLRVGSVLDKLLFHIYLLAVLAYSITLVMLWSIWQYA", "assay": "Cross screening: 5-HT3 antagonist", "assay_type": "biochemical"}, "BRD3 BD2": {"target": "BRD3 BD2 (Homo sapiens, UniProt Q15059)", "sequence (Q15059 306-415 limits assumed)": "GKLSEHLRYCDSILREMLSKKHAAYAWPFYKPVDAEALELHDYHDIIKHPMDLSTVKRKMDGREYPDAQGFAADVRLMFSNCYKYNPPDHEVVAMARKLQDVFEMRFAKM", "assay": "BROMOscan BRD3 BD2", "assay_type": "binding", "experimental": "as §1, §2"}, "Monoamine Oxidase A": {"target": "T4, Monoamine Oxidase A (Homo sapiens, UniProt P21397)", "T4 construct": "purchased GSK enhanced cross-screening panel (in-house)", "T4 sequence (P21397 whole entry)": "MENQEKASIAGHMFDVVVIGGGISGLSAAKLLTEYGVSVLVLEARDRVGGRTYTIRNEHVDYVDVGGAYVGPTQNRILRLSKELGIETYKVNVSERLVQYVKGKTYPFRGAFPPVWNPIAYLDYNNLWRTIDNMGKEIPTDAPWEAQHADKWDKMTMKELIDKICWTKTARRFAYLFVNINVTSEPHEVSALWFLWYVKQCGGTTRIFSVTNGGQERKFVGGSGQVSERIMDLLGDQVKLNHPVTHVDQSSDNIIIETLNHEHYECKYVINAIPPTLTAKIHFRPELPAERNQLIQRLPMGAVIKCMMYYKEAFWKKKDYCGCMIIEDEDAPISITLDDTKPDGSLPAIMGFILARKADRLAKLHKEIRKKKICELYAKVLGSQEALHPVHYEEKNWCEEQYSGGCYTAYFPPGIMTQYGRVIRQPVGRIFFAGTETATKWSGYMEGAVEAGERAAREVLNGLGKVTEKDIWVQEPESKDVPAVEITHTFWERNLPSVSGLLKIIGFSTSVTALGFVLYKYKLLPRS", "assay": "Cross screening: Monoamine Oxidase A antagonist", "assay_type": "biochemical"}, "SERT": {"target": "T5, SERT (Homo sapiens, UniProt P31645)", "T5 construct": "purchased GSK enhanced cross-screening panel (in-house)", "T5 sequence (P31645 whole entry)": "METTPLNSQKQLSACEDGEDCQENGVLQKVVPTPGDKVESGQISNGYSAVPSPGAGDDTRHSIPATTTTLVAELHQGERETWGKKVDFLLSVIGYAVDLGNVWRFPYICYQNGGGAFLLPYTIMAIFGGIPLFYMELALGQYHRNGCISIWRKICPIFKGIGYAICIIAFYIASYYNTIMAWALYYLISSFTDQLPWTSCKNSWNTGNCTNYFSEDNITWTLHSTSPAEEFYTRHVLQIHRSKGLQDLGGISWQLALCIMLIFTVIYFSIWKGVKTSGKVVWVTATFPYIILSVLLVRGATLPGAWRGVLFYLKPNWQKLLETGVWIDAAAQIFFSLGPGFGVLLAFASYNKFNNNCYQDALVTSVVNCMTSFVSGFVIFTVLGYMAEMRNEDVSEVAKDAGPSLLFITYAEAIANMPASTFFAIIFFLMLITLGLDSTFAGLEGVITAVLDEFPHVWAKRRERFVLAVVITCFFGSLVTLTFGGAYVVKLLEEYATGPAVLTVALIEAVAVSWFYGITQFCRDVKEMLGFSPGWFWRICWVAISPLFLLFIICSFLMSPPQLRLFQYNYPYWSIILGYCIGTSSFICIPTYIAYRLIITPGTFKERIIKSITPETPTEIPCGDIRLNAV", "assay": "Cross screening: SERT blocker", "assay_type": "biochemical"}, "5-HT2B": {"target": "T6, 5-HT2B (Homo sapiens, UniProt P41595)", "T6 construct": "purchased GSK enhanced cross-screening panel (in-house)", "T6 sequence (P41595 whole entry)": "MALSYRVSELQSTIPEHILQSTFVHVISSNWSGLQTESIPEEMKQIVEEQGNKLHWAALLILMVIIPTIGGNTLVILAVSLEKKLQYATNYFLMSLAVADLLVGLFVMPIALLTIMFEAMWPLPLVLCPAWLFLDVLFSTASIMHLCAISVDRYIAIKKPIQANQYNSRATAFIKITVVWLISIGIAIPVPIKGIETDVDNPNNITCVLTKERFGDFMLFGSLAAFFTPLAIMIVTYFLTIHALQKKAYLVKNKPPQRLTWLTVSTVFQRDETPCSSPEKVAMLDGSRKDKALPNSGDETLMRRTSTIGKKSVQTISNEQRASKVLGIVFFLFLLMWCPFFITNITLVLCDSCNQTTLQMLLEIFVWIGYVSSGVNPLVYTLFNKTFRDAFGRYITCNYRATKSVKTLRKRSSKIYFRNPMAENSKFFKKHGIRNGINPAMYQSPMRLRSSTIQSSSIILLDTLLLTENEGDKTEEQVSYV", "assay": "Cross screening: 5-HT2B Agonist", "assay_type": "biochemical"}, "BRDT BD2": {"target": "BRDT BD2 (Homo sapiens, UniProt Q58F21)", "assay": "BROMOscan BRDT BD2", "assay_type": "binding", "experimental": "as §1, §2"}, "EP300": {"target": "T7, EP300 (Homo sapiens, UniProt Q09472)", "T7 construct": "The broader non-BET bromodomain selectivity was also determined in the BROMOscan assay, with the closest off-target being EP300; purchased DiscoverX", "T7 sequence (Q09472 1049-1156 limits assumed)": "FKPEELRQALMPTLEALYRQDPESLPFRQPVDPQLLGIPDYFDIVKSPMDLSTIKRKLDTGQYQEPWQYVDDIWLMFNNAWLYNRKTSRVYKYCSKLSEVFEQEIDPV", "assay": "BROMOscan EP300", "assay_type": "binding", "experimental": "as §1, §2"}, "BAZ2B": {"target": "T8, BAZ2B (Homo sapiens, UniProt Q9UIF8)", "T8 construct": "≥2000-fold selectivity over all 20 non-BET bromodomains tested; purchased DiscoverX", "T8 sequence (Q9UIF8 2060-2164 limits assumed)": "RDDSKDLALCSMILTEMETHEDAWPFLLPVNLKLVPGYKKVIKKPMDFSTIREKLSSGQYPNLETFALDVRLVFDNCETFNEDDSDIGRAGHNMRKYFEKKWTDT", "assay": "BROMOscan BAZ2B", "assay_type": "binding", "experimental": "as §1, §2"}, "Histamine 1": {"target": "T9, Histamine 1 (Homo sapiens, UniProt P35367)", "T9 construct": "purchased GSK enhanced cross-screening panel (in-house)", "assay": "Cross screening: Histamine 1 antagonist", "assay_type": "biochemical"}, "BRPF3": {"target": "T10, BRPF3 (Homo sapiens, UniProt Q9ULD4)", "T10 construct": "≥2000-fold selectivity over all 20 non-BET bromodomains tested; purchased DiscoverX", "assay": "BROMOscan BRPF3", "assay_type": "binding", "experimental": "as §1, §2"}, "OPRM1": {"target": "T11, OPRM1 (Homo sapiens, UniProt P35372)", "T11 construct": "purchased GSK enhanced cross-screening panel (in-house)", "assay": "Cross screening: OPRM1 Agonist", "assay_type": "biochemical"}, "FALZ": {"target": "T12, FALZ (Homo sapiens, UniProt Q12830)", "T12 construct": "≥2000-fold selectivity over all 20 non-BET bromodomains tested; purchased DiscoverX", "assay": "BROMOscan FALZ", "assay_type": "binding", "experimental": "as §1, §2"}, "GR": {"target": "T13, GR (Homo sapiens, UniProt P04150)", "T13 construct": "purchased GSK enhanced cross-screening panel (in-house)", "assay": "Cross screening: GR Agonist", "assay_type": "biochemical"}, "Alpha 1 nAChR": {"target": "T14, Alpha 1 nAChR (Homo sapiens, UniProt P02708+P07510+Q07001)", "T14 construct": "purchased GSK enhanced cross-screening panel (in-house)", "assay": "Cross screening: Alpha 1 nAChR Antagonist", "assay_type": "biochemical"}, "MRGPRX2": {"target": "T15, MRGPRX2 (Homo sapiens, UniProt Q96LB1)", "T15 construct": "purchased GSK enhanced cross-screening panel (in-house)", "T15 sequence (Q96LB1 whole entry)": "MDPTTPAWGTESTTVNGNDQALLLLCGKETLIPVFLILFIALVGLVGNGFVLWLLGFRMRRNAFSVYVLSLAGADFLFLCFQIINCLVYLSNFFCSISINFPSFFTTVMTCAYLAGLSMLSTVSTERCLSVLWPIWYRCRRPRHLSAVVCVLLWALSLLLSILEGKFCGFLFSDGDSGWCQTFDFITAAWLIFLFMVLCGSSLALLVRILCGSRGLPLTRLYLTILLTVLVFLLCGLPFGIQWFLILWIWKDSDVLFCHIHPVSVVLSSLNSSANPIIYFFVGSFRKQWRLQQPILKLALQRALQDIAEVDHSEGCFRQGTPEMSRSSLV", "assay": "Cross screening: MRGPRX2 Agonist", "assay_type": "biochemical"}, "GCN5": {"target": "T16, GCN5 (Homo sapiens, UniProt Q92830)", "T16 construct": "≥2000-fold selectivity over all 20 non-BET bromodomains tested; purchased DiscoverX", "assay": "BROMOscan GCN5", "assay_type": "binding", "experimental": "as §1, §2"}, "BRD4 BD2": {"target": "T17, BRD4 BD2 (Homo sapiens, UniProt O60885)", "T17 construct": "BRD4 BD2; purchased DiscoverX", "assay": "BROMOscan BRD4 BD2", "assay_type": "binding", "experimental": "as §1, §2"}, "PXR": {"target": "PXR (Homo sapiens, UniProt O75469)", "assay": "Cross screening: PXR Human Agonist"}, "KCNQ1": {"target": "KCNQ1 (Homo sapiens, UniProt P51787)", "sequence (P51787 whole entry)": "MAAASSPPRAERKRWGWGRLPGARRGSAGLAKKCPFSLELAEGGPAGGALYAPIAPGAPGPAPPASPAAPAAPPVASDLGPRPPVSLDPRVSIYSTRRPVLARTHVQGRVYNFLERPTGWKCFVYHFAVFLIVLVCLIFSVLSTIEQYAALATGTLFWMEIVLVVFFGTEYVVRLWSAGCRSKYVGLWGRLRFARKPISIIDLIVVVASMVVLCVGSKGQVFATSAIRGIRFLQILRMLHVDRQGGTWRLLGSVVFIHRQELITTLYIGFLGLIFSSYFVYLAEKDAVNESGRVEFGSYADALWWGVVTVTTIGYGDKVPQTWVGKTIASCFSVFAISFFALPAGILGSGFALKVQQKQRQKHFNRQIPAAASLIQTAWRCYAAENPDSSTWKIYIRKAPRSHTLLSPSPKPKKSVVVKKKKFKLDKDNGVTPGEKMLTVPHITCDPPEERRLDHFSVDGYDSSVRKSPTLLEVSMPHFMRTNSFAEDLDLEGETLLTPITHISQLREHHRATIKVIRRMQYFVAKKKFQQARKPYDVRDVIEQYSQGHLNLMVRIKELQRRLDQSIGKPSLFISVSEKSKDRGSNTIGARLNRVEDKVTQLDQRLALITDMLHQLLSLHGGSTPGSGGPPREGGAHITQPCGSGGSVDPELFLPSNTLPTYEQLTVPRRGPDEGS", "assay": "Cross screening: KCNQ1 blocker"}, "PBRM1 BD2": {"target": "T18, PBRM1 BD2 (Homo sapiens, UniProt Q86U86)", "T18 construct": "PBRM1 BD2; purchased DiscoverX", "T18 sequence (Q86U86 177-287 limits assumed)": "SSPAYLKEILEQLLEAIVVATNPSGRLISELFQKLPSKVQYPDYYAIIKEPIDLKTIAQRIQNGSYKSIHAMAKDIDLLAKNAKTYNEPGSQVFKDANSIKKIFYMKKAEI", "assay": "BROMOscan PBRM1 BD2", "assay_type": "binding", "experimental": "as §1, §2"}, "hCav1_2": {"target": "T19, hCav1_2 (Homo sapiens, UniProt Q13936)", "T19 construct": "purchased GSK enhanced cross-screening panel (in-house)", "assay": "Cross screening: hCav1_2 Blocker", "assay_type": "biochemical"}, "Adenosine A2a": {"target": "T20, Adenosine A2a (Homo sapiens, UniProt P29274)", "T20 construct": "purchased GSK enhanced cross-screening panel (in-house)", "T20 sequence (P29274 whole entry)": "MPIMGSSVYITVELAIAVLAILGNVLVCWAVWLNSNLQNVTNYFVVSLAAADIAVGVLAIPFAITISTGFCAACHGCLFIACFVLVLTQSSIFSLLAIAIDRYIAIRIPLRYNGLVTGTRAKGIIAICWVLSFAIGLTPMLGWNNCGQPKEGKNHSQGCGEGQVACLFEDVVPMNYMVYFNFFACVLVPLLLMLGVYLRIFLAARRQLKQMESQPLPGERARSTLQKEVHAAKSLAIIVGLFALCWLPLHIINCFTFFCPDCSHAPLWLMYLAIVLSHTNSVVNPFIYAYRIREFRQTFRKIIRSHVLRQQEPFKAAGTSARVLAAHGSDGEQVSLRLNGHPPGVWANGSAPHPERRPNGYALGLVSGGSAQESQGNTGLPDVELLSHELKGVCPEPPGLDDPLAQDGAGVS", "assay": "Cross screening: Adenosine A2a Human Agonist", "assay_type": "biochemical"}, "BET BD1": {"test_system": "BET BD1", "assay": "BET family BD1/BD2 profiling (TR-FRET, BROMOscan)", "assay_type": "binding, human", "experimental": "as §1\n(§3) All TR-FRET and hWB cytokine assays have been described previously.[54]\nas §2"}, "ATAD2A": {"target": "T21, ATAD2A (Homo sapiens, UniProt Q6PL18)", "T21 construct": "≥2000-fold selectivity over all 20 non-BET bromodomains tested; purchased DiscoverX", "assay": "BROMOscan ATAD2A", "assay_type": "binding", "experimental": "as §1, §2"}, "Beta2 Adrenoceptor": {"target": "T22, Beta2 Adrenoceptor (Homo sapiens, UniProt P07550)", "T22 construct": "purchased GSK enhanced cross-screening panel (in-house)", "T22 sequence (P07550 whole entry)": "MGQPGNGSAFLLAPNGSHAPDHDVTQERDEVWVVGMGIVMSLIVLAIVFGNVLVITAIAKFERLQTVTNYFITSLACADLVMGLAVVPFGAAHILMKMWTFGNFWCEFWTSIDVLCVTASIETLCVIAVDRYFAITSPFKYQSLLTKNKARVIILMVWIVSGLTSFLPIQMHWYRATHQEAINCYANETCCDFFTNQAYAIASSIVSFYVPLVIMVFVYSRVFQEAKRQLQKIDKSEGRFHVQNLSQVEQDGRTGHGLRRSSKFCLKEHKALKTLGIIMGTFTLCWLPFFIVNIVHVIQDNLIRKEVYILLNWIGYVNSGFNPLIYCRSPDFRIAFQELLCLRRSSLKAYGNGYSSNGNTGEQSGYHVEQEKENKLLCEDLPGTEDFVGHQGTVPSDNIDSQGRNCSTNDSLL", "assay": "Cross screening: Beta2 Adrenoceptor Human Agonist", "assay_type": "biochemical"}, "BRDT BD1": {"target": "BRDT BD1 (Homo sapiens, UniProt Q58F21)", "assay": "BRDT BD1 TR-FRET assay", "assay_type": "binding", "experimental": "as §1, §3"}, "CB1": {"target": "T23, CB1 (Homo sapiens, UniProt P21554)", "T23 construct": "purchased GSK enhanced cross-screening panel (in-house)", "assay": "Cross screening: CB1 Agonist", "assay_type": "biochemical"}, "M1": {"target": "T24, M1 (Homo sapiens, UniProt P11229)", "T24 construct": "purchased GSK enhanced cross-screening panel (in-house)", "assay": "Cross screening: M1 Agonist", "assay_type": "biochemical"}, "BRD2 BD1": {"target": "BRD2 BD1 (Homo sapiens, UniProt P25440)", "sequence (P25440 74-180 limits assumed)": "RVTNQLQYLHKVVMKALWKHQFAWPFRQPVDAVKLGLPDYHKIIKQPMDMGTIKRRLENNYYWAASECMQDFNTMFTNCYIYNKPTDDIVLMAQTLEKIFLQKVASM", "assay": "BRD2 BD1 TR-FRET assay", "assay_type": "binding", "experimental": "as §1, §3"}, "CYP3A4": {"target": "CYP3A4 (Homo sapiens, UniProt P08684)", "assay": "Cross screening: CYP3A4 inhibition"}, "BRPF1": {"target": "T25, BRPF1 (Homo sapiens, UniProt P55201)", "T25 construct": "≥2000-fold selectivity over all 20 non-BET bromodomains tested; purchased DiscoverX", "T25 sequence (P55201 628-732 limits assumed)": "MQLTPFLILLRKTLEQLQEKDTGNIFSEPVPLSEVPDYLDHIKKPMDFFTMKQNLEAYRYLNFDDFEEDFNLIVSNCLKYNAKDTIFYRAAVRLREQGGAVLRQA", "assay": "BROMOscan BRPF1", "assay_type": "binding", "experimental": "as §1, §2"}, "5-HT3 [2]": {"target": "T3, 5-HT3", "assay": "Cross screening: 5-HT3 Agonist", "assay_type": "biochemical"}, "CAD aqueous solubility": {"assay": "CAD aqueous solubility", "experimental": "To understand cellular target engagement, 21 was tested in an LPS-stimulated hWB assay measuring inhibition of the inflammatory mediator MCP-1 secretion.\nChromatographicLogD at pH 7.4, artificial membrane permeability, CLND solubility, and CAD solubility were measured using published protocols.[55]"}, "K1": {"test_system": "K1", "assay": "Cross screening: K1 Agonist", "assay_type": "biochemical"}}}
{"smiles": "Cc1cc(-c2nc3ccccc3n2C[C@@H]2CCCN(C(=O)C3CCN(C(C)C)CC3)C2)cn(C)c1=O", "note": "[Compound 31, (S)-5-(1-((1-(1-Isopropylpiperidine-4-carbonyl)piperidin-3-yl)methyl)-1H-benzo [d]imidazole-2-yl)-1,3-dimethylpyridin-2(1H)-one]", "values": [{"measurement": "Kd", "setting": "SMARCA4", "result": "> 31.6", "unit": "µM"}, {"measurement": "Kd", "setting": "ATAD2B", "result": "> 31.6", "unit": "µM"}, {"measurement": "pXC50 5-HT3 antagonist", "setting": "5-HT3 [1]", "result": "< 4.3"}, {"measurement": "BROMOscan pKd BRD3 BD2", "setting": "BRD3 BD2", "result": 5.8}, {"measurement": "pXC50 Monoamine Oxidase A antagonist", "setting": "Monoamine Oxidase A", "result": "< 4.0"}, {"measurement": "pXC50 SERT blocker", "setting": "SERT", "result": "< 4.0"}, {"measurement": "pXC50 5-HT2B Agonist", "setting": "5-HT2B", "result": "< 4.0"}, {"measurement": "BROMOscan pKd BRDT BD2", "setting": "BRDT BD2", "result": 5.5}, {"measurement": "BROMOscan pKd EP300", "setting": "EP300", "result": 5.0}, {"measurement": "fold selectivity over EP300", "setting": "EP300; BROMOscan, compared to BRD4 BD1 pKd 8.1", "result": 1200, "unit": "fold"}, {"measurement": "Kd", "setting": "BAZ2B", "result": "> 31.6", "unit": "µM"}, {"measurement": "pXC50 Histamine 1 antagonist", "setting": "Histamine 1", "result": "< 4.6"}, {"measurement": "Kd", "setting": "BRPF3", "result": "> 31.6", "unit": "µM"}, {"measurement": "pXC50 OPRM1 Agonist", "setting": "OPRM1", "result": "< 4.0"}, {"measurement": "Kd", "setting": "FALZ", "result": "> 31.6", "unit": "µM"}, {"measurement": "pXC50 GR Agonist", "setting": "GR", "result": "< 4.0"}, {"measurement": "pXC50 Alpha 1 nAChR Antagonist", "setting": "Alpha 1 nAChR", "result": "< 4.2"}, {"measurement": "pXC50 MRGPRX2 Agonist", "setting": "MRGPRX2", "result": "< 4.0"}, {"measurement": "Kd", "setting": "GCN5", "result": "> 31.6", "unit": "µM"}, {"measurement": "BROMOscan pKd BRD4 BD2", "setting": "BRD4 BD2", "result": 5.6}, {"measurement": "pXC50 PXR Human Agonist", "setting": "PXR", "result": "< 4.3"}, {"measurement": "pXC50 KCNQ1 blocker", "setting": "KCNQ1", "result": "< 4.6"}, {"measurement": "Kd", "setting": "PBRM1 BD2", "result": "> 31.6", "unit": "µM"}, {"measurement": "pXC50 hCav1_2 Blocker", "setting": "hCav1_2", "result": "< 4.0"}, {"measurement": "pXC50 Adenosine A2a Human Agonist", "setting": "Adenosine A2a", "result": "< 4.0"}, {"measurement": "BD1 domain selectivity over BD2 across the four isoforms", "setting": "BET BD1; TR-FRET BRD2, BRD3, BRD4, BRDT", "result": "at least 400 fold"}, {"measurement": "BET BD1 domain selectivity", "setting": "BET BD1; depending on protein and assay format", "result": "300–1000 fold"}, {"measurement": "Kd", "setting": "ATAD2A", "result": "> 31.6", "unit": "µM"}, {"measurement": "pXC50 Beta2 Adrenoceptor Human Agonist", "setting": "Beta2 Adrenoceptor", "result": "< 4.0"}, {"measurement": "BRDT BD1 TR-FRET pIC50", "setting": "BRDT BD1", "result": 7.3}, {"measurement": "fold selectivity BRDT BD1 over BD2", "setting": "BRDT BD1; TR-FRET", "result": 630, "unit": "fold"}, {"measurement": "pXC50 CB1 Agonist", "setting": "CB1", "result": "< 4.0"}, {"measurement": "pXC50 M1 Agonist", "setting": "M1", "result": "< 4.3"}, {"measurement": "BRD2 BD1 TR-FRET pIC50", "setting": "BRD2 BD1", "result": 8.0}, {"measurement": "fold selectivity BRD2 BD1 over BD2", "setting": "BRD2 BD1; TR-FRET", "result": 400, "unit": "fold"}, {"measurement": "pXC50 CYP3A4 inhibition", "setting": "CYP3A4", "result": 4.1}, {"measurement": "Kd", "setting": "BRPF1", "result": 15.8, "unit": "µM"}, {"measurement": "pXC50 5-HT3 Agonist", "setting": "5-HT3 [2]", "result": "< 4.3"}, {"measurement": "solubility", "setting": "CAD aqueous solubility", "result": "≥ 257", "unit": "µg/mL"}, {"measurement": "pXC50 K1 Agonist", "setting": "K1", "result": "< 4.0"}]}
